Source: patent US20080022467A1, “Disazo dyes and their preparation and use” (ILFORD Imaging Switzerland GmbH, priority 2006, published 2008)

Tests used:
[1] = Light stability of printed patches (Weather-Ometer, xenon lamp); type: physicochemical; parameters: key to Light Stability (Class) on Recording Sheet A / Light Stability (Class) on Recording Sheet B / Light Stability (Class) on Recording Sheet C / Light Stability (Class) on Recording Sheet D / Light Stability (Class) on Recording Sheet E / Light Stability (Class) on Recording Sheet F / Light Stability (Class) on Recording Sheet G: A: excellent; B: good; C: satisfactory; D: unsatisfactory; settings: for Light Stability (Class) on Recording Sheet A: A: HP Printing Paper HPP 1122 (paper), 20° C., 50% relative humidity; for Light Stability (Class) on Recording Sheet A / Light Stability (Class) on Recording Sheet B / Light Stability (Class) on Recording Sheet C / Light Stability (Class) on Recording Sheet D / Light Stability (Class) on Recording Sheet E / Light Stability (Class) on Recording Sheet F / Light Stability (Class) on Recording Sheet G: 20 megalux hours; for Light Stability (Class) on Recording Sheet B: B: HP Premium Plus (polymer based); for Light Stability (Class) on Recording Sheet C: C: ILFORD Galerie Smooth Glossy (nanoporous); for Light Stability (Class) on Recording Sheet D: D: ILFORD Printasia Premium Photo Glossy Paper (nanoporous); for Light Stability (Class) on Recording Sheet E: E: ILFORD Galerie Classic Gloss Paper (polymer based); for Light Stability (Class) on Recording Sheet F: F: EPSON Premium Glossy Photo Paper (nanoporous); for Light Stability (Class) on Recording Sheet G: G: CANON Photo Paper Pro PR-101 (nanoporous); for light stability on all recording sheets (in words): summary of Table 4
Protocol: (§1) The present invention, as far as it relates to recording liquids, is illustrated by the following examples using the disazo dyes of Table 1 according to the invention and dyes representing the state of the art. For each dye, 100 g of recording liquid were prepared by heating the necessary amount of dye (2.0 g-5.0 g), 6.0 g of ethylene glycol, 3.0 g of propylene-1,2-glycol, 3.0 g of 1-methyl-2-pyrrolidone, 0.3 g of an aqueous solution (50%) of Olin® 10G (available from Arch Chemicals Inc., Norwalk, USA), 0.3 g of Surfinol® 465 (available from Air Products and Chemicals Inc., Allentown, USA) and 0.1 g of Mergal® K 10N (available from Riedel-de-Haën, Seelze, Germany) together with water at a temperature of 50° C. under stirring for approximately 1 hour. The resulting solution was cooled down to a temperature of 20° C., its value of pH was adjusted to 7.5 and the solution was passed through a Millipore® filter of 0.3 μm pore diameter. The dye quantity was adjusted in such a way that the optical density of the printed image was similar for all dyes.
(§2) Homogeneously colored square patches with an approximate density of 1.40 were then printed, using these recording liquids, with an ink jet printer Canon BJC 8500 onto the following recording sheets: • A: HP Printing Paper HPP 1122 (paper) • B: HP Premium Plus (polymer based recording sheet) • C: ILFORD Galerie Smooth Glossy (nanoporous recording sheet) • D: ILFORD Printasia Premium Photo Glossy Paper (nanoporous recording sheet) • E: ILFORD Galerie Classic Gloss Paper (polymer based recording sheet) • F: EPSON Premium Glossy Photo Paper (nanoporous recording sheet) • G: CANON Photo Paper Pro PR-101 (nanoporous recording sheet)
The printed samples were irradiated using a Weather-Ometer® Ci35A (available from Atlas Material Testing Technology, Chicago, USA) with a 6500 W xenon lamp at a temperature of 20° C. and relative humidity of 50% until an illumination of 20 megalux hours was reached. The density loss was measured with a densitometer Spectrolino®. The percent density loss of initial density gives an indication of the light stability of the dyes on the printed recording sheet.

[2] = Stability against degradation by ozone of printed patches; type: physicochemical; parameters: key: A: excellent; B: good; C: satisfactory; D: unsatisfactory; settings: ozone 1 ppm, 30° C., 50% relative humidity; for Resistance against Degradation by Ozone (Class) on Recording Sheet C: C: ILFORD Galerie Smooth Glossy (nanoporous); for Resistance against Degradation by Ozone (Class) on Recording Sheet D: D: ILFORD Printasia Premium Photo Glossy Paper (nanoporous); for Resistance against Degradation by Ozone (Class) on Recording Sheet F: F: EPSON Premium Glossy Photo Paper (nanoporous); for Resistance against Degradation by Ozone (Class) on Recording Sheet G: G: CANON Photo Paper Pro PR-101 (nanoporous)
Protocol: as §1, §2
The optical density of the colored square patches was measured with a Spectrolino® densitometer. Afterwards, the printed samples were stored for a predetermined time (for example 48 hours) in an ozone chamber, model 903 (available from Satra/Hampden, Great Britain) at a temperature of 30° C., a relative humidity of the air of 50% and an ozone concentration of 1 ppm at a velocity of the circulating, ozone containing air of 13 mm/s. After storage, the samples were re-measured. The density differences of these two measurements, expressed as per cent of the initial density, are an indication of the amount of dye loss due to the exposure to ozone.

| Compound | Light Stability (Class) on Recording Sheet A [1] | Light Stability (Class) on Recording Sheet B [1] | Light Stability (Class) on Recording Sheet C [1] | Light Stability (Class) on Recording Sheet D [1] | Light Stability (Class) on Recording Sheet E [1] | Light Stability (Class) on Recording Sheet F [1] | Light Stability (Class) on Recording Sheet G [1] | Resistance against Degradation by Ozone (Class) on Recording Sheet C [2] | Resistance against Degradation by Ozone (Class) on Recording Sheet D [2] | Resistance against Degradation by Ozone (Class) on Recording Sheet F [2] | Resistance against Degradation by Ozone (Class) on Recording Sheet G [2] | light stability on all recording sheets (in words) [1] |
| --- | --- | --- | --- | --- | --- | --- | --- | --- | --- | --- | --- | --- |
| O=C([O-])c1cc(Nc2nc(Nc3ccc(N=Nc4cc(S(=O)(=O)[O-])c5cccc(S(=O)(=O)[O-])c5c4)cc3)nc(Nc3ccc(N=Nc4cc(S(=O)(=O)[O-])c5cccc(S(=O)(=O)[O-])c5c4)cc3)n2)cc(C(=O)[O-])c1.[Na+].[Na+].[Na+].[Na+].[Na+].[Na+] [Dye No. 18] | B | A | B | B | B | B | B | A | A | A | A | – |
| O=S(=O)([O-])CCNc1nc(Nc2ccc(N=Nc3cc(S(=O)(=O)[O-])c4cccc(S(=O)(=O)[O-])c4c3)cc2)nc(Nc2ccc(N=Nc3cc(S(=O)(=O)[O-])c4cccc(S(=O)(=O)[O-])c4c3)cc2)n1.[Na+].[Na+].[Na+].[Na+].[Na+] [Dye No. 11] | B | A | A | B | B | A | A | A | A | A | A | – |
| Cc1cc(Nc2nc(NCCO)nc(Nc3ccc(/N=N/c4cc(S(=O)(=O)[O-])c5cccc(S(=O)(=O)[O-])c5c4)c(C)c3)n2)ccc1/N=N/c1cc(S(=O)(=O)[O-])c2cccc(S(=O)(=O)[O-])c2c1.[Na+].[Na+].[Na+].[Na+] [Dye No. II, Direct Yellow 86, reference compound] | B | D | B | B | B | A | A | A | B | A | A | satisfactory or even unsatisfactory light stability |
| Direct Yellow 132 [Dye No. III, reference compound] | C | A | B | B | B | B | B | D | B | C | C | satisfactory or even unsatisfactory light stability |
| O=S(=O)([O-])CCNc1nc(Nc2ccc(N=Nc3ccc4cc(S(=O)(=O)[O-])cc(S(=O)(=O)[O-])c4c3)cc2)nc(Nc2ccc(N=Nc3ccc4cc(S(=O)(=O)[O-])cc(S(=O)(=O)[O-])c4c3)cc2)n1.[Na+].[Na+].[Na+].[Na+].[Na+] [Dye No. 16] | B | A | B | B | B | B | B | A | A | A | A | – |
| CN(CCS(=O)(=O)[O-])c1nc(Nc2ccc(N=Nc3ccc4cc(S(=O)(=O)[O-])cc(S(=O)(=O)[O-])c4c3)cc2)nc(Nc2ccc(N=Nc3ccc4cc(S(=O)(=O)[O-])cc(S(=O)(=O)[O-])c4c3)cc2)n1.[Na+].[Na+].[Na+].[Na+].[Na+] [Dye No. 17] | B | A | A | B | B | B | B | B | A | A | A | – |
| O=S(=O)([O-])CCCSc1nc(Nc2ccc(N=Nc3cc(S(=O)(=O)[O-])c4cccc(S(=O)(=O)[O-])c4c3)cc2)nc(Nc2ccc(N=Nc3cc(S(=O)(=O)[O-])c4cccc(S(=O)(=O)[O-])c4c3)cc2)n1.[Na+].[Na+].[Na+].[Na+].[Na+] [Dye No. 10] | B | A | A | B | B | B | B | A | A | A | A | – |
| O=S(=O)([O-])CCCSc1nc(Nc2ccc(N=Nc3ccc4cc(S(=O)(=O)[O-])cc(S(=O)(=O)[O-])c4c3)cc2)nc(Nc2ccc(N=Nc3ccc4cc(S(=O)(=O)[O-])cc(S(=O)(=O)[O-])c4c3)cc2)n1.[Na+].[Na+].[Na+].[Na+].[Na+] [Dye No. 15] | B | A | B | B | B | B | B | B | A | A | A | – |
| O=S(=O)([O-])c1cc(/N=N/c2ccc(Nc3nc(NCCO)nc(Nc4ccc(/N=N/c5cc(S(=O)(=O)[O-])c6cccc(S(=O)(=O)[O-])c6c5)cc4)n3)cc2)cc2c(S(=O)(=O)[O-])cccc12.[Na+].[Na+].[Na+].[Na+] [Dye No. I, reference compound] | A | A | B | B | B | A | B | A | B | A | A | excellent or good light stability |
